{"source": "patent US5792784A", "about": "“Coupling product obtained from histamine and an amino acid” (Babizhayev; Marc, priority 1993, dated 1998)", "key": {"murine splenocytes": {"test_system": "murine splenocytes", "assay": "Immunostimulating activity in vitro on murine splenocytes (tritiated thymidine incorporation)", "assay_type": "cell-based", "from_the_text": "The procedure is extracted from: J. Kunert-Radek, H. Stepien, K. Lyson and M. Pawlikowski--\"Effects of calcium channel modulators on the proliferation of mouse spleen lymphocytes in vitro\"--Agents and Actions, vol. 29, Nos 3-4 (1990), p. 254-258.\nThe cell proliferation is followed by the measurement of the extent of incorporation of tritriated thymidine in the cells, expressed in numbers of desintegrations per mn, deducted from the background.\nThe results obtained with an immunostimulator of reference, concanavaline A, are given as a comparison.\nThe immunostimulating effect is expressed by an Index of Stimulation (IS) [formula]\nThe given values are corresponding to the average of three measures."}, "[1]": {"test_system": "cutaneous connective tissue", "assay": "Repairing of the cutaneous connective tissue after incision in rat (histology)", "assay_type": "in vivo, Wistar rats", "description": "This experiment has been carried out on a batch of 12 Wistar rats. An incision of a length of 12 mm involving in depth epiderm and derm as a whole was performed. At the end of the healing, the rats are then treated by topical applications of β-alanyl-histadine for three weeks. At the same time, a reference batch of 12 rats have been treated with placebo for the same lasting time of experiment."}, "cataract": {"test_system": "cataract", "assay": "Cataract patients: modification of the visual acuity at the end of 24 months", "assay_type": "in vivo", "settings": "24 months", "from_the_text": "This example concerns the utilization of the β-alanyl-histamine to treat patients affected by cataract.\n(§1) The study has been designed for a prospective evaluation of the modifications of the lens opacity in patients effected by cataract. All the patients have undergone an initial ophtalmic examination. It involved the making of the medical historical record of the patient, a measurement of the visual acuity at a maximum correction, direct or indirect ophtalmoscopies, an evaluation of the opacities with the slit lamp, a clinical grading of the lens after maximal mydriasis, a classification according to the cataract type, and lens pictures by retroillumination. Moreover, samples of blood have been taken at the beginning, then in follow-up for chemical analysis.\nThe general view has allowed to establish the initial state of patients before the treatment (definition of \"base line\").\nFollow-up of ophtalmic examinations were carried out every two weeks for two months, then every month. They included maximum visual acuity after correction, direct or indirect ophtalmoscopies, a slit lamp examination, and after a maximum dilation of the pupil (excluding patients with primary open-angle glaucoma), a clinical lens grading, a classification of the cataract. Pictures also have been taken on lens observed by retroillumination or with the slit lamp.\nIn this study, differents groups have been determined, to be seen:\nA group reference 1, with non-treated patients (5 patients, 7 eyes) […]\nA group 3, has been submitted to the same treatment than the group 2, stimulated by an \"attack type of treatment\" during the first two weeks: 2 subcon-junctival junctival injections twice a week of 0.10 to 0.15 ml of the saline defined for the group 2 (3 patients, 4 eyes).\nA group 4, which was given a local dose by way of an eye drop of isotonic saline twice a day (5 patients 7 eyes), the group 4 being like the group 1, a reference group.\n(§2) Following the protocol described above, we determine the values of the optic density of the lens according to its opacity as well as the visual acuity, and the whole for 24 months. Considering these two parameters, we obtain tables giving results concerning the modification of the visual acuity at the end of 24 months in Tables 1 and 2, and the results concerning the modification of the visual opacity at the end of 24 months in Tables 3 and 4."}, "lens": {"test_system": "lens", "assay": "Cataract patients: lens opacity (slit lamp, retroillumination, image analysis)", "assay_type": "in vivo", "settings": "for decrease of the opacity: 24 months, groups 2 and 3; for integration peak of opacity distribution: posterior subcapsular cataract", "from_the_text": "as §1\nChanges of the lens have been examined in all the patients by using the microscope with the Zeiss slit lamp. The photographic observations obtained with this technique included a base line examination, intermediate studies and a final examination at the end of the treatment period.\nIn using the technique of the slit lamp, the lens has been pictured layer by layer in order to visualize all the anterior segment of the eye, from the cornea to the posterior capsule.\nWith this technique, Red reflex examination has been carried out, according to a conventional retroillumination. Then lens modifications were graded according to the anatomical location and the importance of the modification.\nCortical opacities have been graded and pictured in retroillumination. Afterwards this film has been submitted to a measurement of linear densitometry with a microdensitometer. The opacity values have been reported in relative value using a standard scale of opacification. The cortical opacities measurement have been rated also taking into account of the total surface exposed to radiation. The posterior subcapsular opacities have been measured in retroillumination by the longest height, from the lower part to the top and by the greatest width, using the scale of the slit lamp.\nPictures of the lens also were taken on nuclear and cortical opacities and later on they were graded.\nThe different negatives taken with the slit lamp have been analyzed with a \"plumbicon tube\". This equipment allows one to transpose with a large accuracy a measurement of intensity of light into an electric signal which is integrated and stored in an analysis system of computerized image. With the help of a specific program, the lens image in that manner \"digitized\" could be reproduced as a graph in two or three dimensions.\nA detailed description of this method of image processing is given in : Babizhayev M. A. Zhukotskii A. V. and Sologub A. A. (1992), \"Image analysis of the lens opacities induced in developing chick embryo by glucocorticoid\", Exp. Eye Res. Vol. 55, p.521-537.\nThe represented histograms show in a concrete example the interest of such evaluation method. A case of posterior subcapsular cataract is studied before and after 21/2 months of treatment following topical applications with eye drops containing 1% of β-alanyl-histamine. The histograms give the quantitative distribution of opacities with an integration peak of 58.44±18.14 before treatment, and of 44.95±8.77 after 21/2 months of treatment.\nas §2"}, "[2]": {"assay": "Inhibition of phosphatidylcholine liposome peroxidation (Fe/ascorbic acid; TBA/MDA)", "settings": "10 mM; control 4.4", "excerpt": "oxidation substrate: phosphatidylcholine liposomes\nfree radicals generating system : Fe/ascorbic acid detection: thiobarbituric acid (TBA)/malondialdehyde (MDA)"}, "[3]": {"settings": "groups 2 and 3, start acuity 20/30"}, "[4]": {"settings": "groups 2 and 3, start acuity 20/40"}, "[5]": {"settings": "groups 2 and 3, start acuity 20/50"}, "[6]": {"settings": "groups 2 and 3, start acuity 20/70"}, "[7]": {"settings": "groups 2 and 3, start acuity 20/100"}, "[8]": {"settings": "groups 2 and 3, total of 19 eyes"}, "[9]": {"settings": "after 21/2 months, eye drops 1%"}}, "data": [{"compound": "NCCC(=O)NCCc1c[nH]cn1", "note": "[β-alanyl-histamine]", "values": [{"measurement": "concentration of maximum immunostimulating effect", "setting": "murine splenocytes", "value": 25, "unit": "µg/mL"}, {"measurement": "immunostimulating activity versus reference mitogen", "setting": "murine splenocytes", "value": "comparable with a reference mitogen, concanavaline A"}, {"measurement": "fold induction at 2.5 µg/mL", "setting": "murine splenocytes; Mus musculus, Splenocyte, 2.5 μg/ml, average of three measures, read-out: Index of Stimulation (IS)", "value": 4.8}, {"measurement": "fold induction at 5 µg/mL", "setting": "murine splenocytes; Mus musculus, Splenocyte, 5 μg/ml, average of three measures, read-out: Index of Stimulation (IS)", "value": 15.7}, {"measurement": "fold induction at 10 µg/mL", "setting": "murine splenocytes; Mus musculus, Splenocyte, 10 μg/ml, average of three measures, read-out: Index of Stimulation (IS)", "value": 16.9}, {"measurement": "fold induction at 25 µg/mL", "setting": "murine splenocytes; Mus musculus, Splenocyte, 25 μg/ml, average of three measures, read-out: Index of Stimulation (IS)", "value": 18.6}, {"measurement": "fold induction at 50 µg/mL", "setting": "murine splenocytes; Mus musculus, Splenocyte, 50 μg/ml, average of three measures, read-out: Index of Stimulation (IS)", "value": 12.8}, {"measurement": "density and aspect of the constituents of the connective tissue", "setting": "[1]; capillary layer versus deep layer", "value": "obviously the same in the capillary layer and in the deep layer"}, {"measurement": "thin elastic or reticulin fibres", "setting": "[1]; dermic superficial layers", "value": "generally more numerous in the dermic superficial layers"}, {"measurement": "fundamental substance", "setting": "[1]; toluidine blue colouring", "value": "more abundant than normal"}, {"measurement": "horny-layers", "setting": "[1]; topical, after 3 weeks", "value": "identical to the ones of the surrounding normal epiderm"}, {"measurement": "restoration of epiderm", "setting": "[1]; topical, after 3 weeks", "value": "The epiderm is well restored"}, {"measurement": "visibility of scar", "setting": "[1]; topical, after 3 weeks", "value": "the scar is slightly or even not visible on the skin surface"}, {"measurement": "improvement of the visual acuity + (number of eyes)", "setting": "cataract; groups 2 and 3, start acuity 20/25", "value": 1, "unit": "eyes"}, {"measurement": "improvement of the visual acuity + (number of eyes)", "setting": "cataract; [3]", "value": 1, "unit": "eyes"}, {"measurement": "improvement of the visual acuity ++ (number of eyes)", "setting": "cataract; [3]", "value": 4, "unit": "eyes"}, {"measurement": "improvement of the visual acuity + (number of eyes)", "setting": "cataract; [4]", "value": 1, "unit": "eyes"}, {"measurement": "improvement of the visual acuity ++ (number of eyes)", "setting": "cataract; [4]", "value": 3, "unit": "eyes"}, {"measurement": "improvement of the visual acuity + (number of eyes)", "setting": "cataract; [5]", "value": 1, "unit": "eyes"}, {"measurement": "improvement of the visual acuity ++ (number of eyes)", "setting": "cataract; [5]", "value": 1, "unit": "eyes"}, {"measurement": "improvement of the visual acuity + (number of eyes)", "setting": "cataract; [6]", "value": 1, "unit": "eyes"}, {"measurement": "improvement of the visual acuity ++ (number of eyes)", "setting": "cataract; [6]", "value": 1, "unit": "eyes"}, {"measurement": "improvement of the visual acuity ++ (number of eyes)", "setting": "cataract; [7]", "value": 1, "unit": "eyes"}, {"measurement": "improvement of the visual acuity +++ (number of eyes)", "setting": "cataract; [7]", "value": 2, "unit": "eyes"}, {"measurement": "regression of the visual acuity ++ (number of eyes)", "setting": "cataract; [7]", "value": 1, "unit": "eyes"}, {"measurement": "improvement of the visual acuity ++ (number of eyes)", "setting": "cataract; groups 2 and 3, start acuity 20/200", "value": 1, "unit": "eyes"}, {"measurement": "improvement of the visual acuity + (number of eyes)", "setting": "cataract; [8]", "value": 5, "unit": "eyes"}, {"measurement": "improvement of the visual acuity ++ (number of eyes)", "setting": "cataract; [8]", "value": 11, "unit": "eyes"}, {"measurement": "improvement of the visual acuity +++ (number of eyes)", "setting": "cataract; [8]", "value": 2, "unit": "eyes"}, {"measurement": "regression of the visual acuity + (number of eyes)", "setting": "cataract; [8]", "value": 0, "unit": "eyes"}, {"measurement": "regression of the visual acuity ++ (number of eyes)", "setting": "cataract; [8]", "value": 1, "unit": "eyes"}, {"measurement": "regression of the visual acuity +++ (number of eyes)", "setting": "cataract; [8]", "value": 0, "unit": "eyes"}, {"measurement": "improvement of the vision and regression of cataract", "setting": "cataract; two parameters: visual acuity and opacity", "value": "very significant in the improvement of the vision and the regression of cataract"}, {"measurement": "decrease of the opacity", "setting": "lens; modification 5 @ 9%", "value": 3}, {"measurement": "decrease of the opacity", "setting": "lens; modification 10 @ 14%", "value": 5}, {"measurement": "decrease of the opacity", "setting": "lens; modification 15 @ 19%", "value": 5}, {"measurement": "decrease of the opacity", "setting": "lens; modification 20 @ 24%", "value": 1}, {"measurement": "decrease of the opacity", "setting": "lens; modification +25%", "value": 5}, {"measurement": "decrease of the opacity", "setting": "lens; total", "value": 19}, {"measurement": "opacities in the posterior subcapsular region of the lens", "setting": "lens; [9]", "value": "partial regression of the opacities"}, {"measurement": "integration peak of opacity distribution", "setting": "lens; [9]", "value": "44.95±8.77"}, {"measurement": "integration peak of opacity distribution", "setting": "lens; before treatment", "value": "58.44±18.14"}, {"measurement": "MDA per mg of phospholipids", "setting": "[2]", "value": "2.5 mol MDA per mg of phospholipid"}]}]}
